# Test results reported in patent US12116356B2, “N-heterocyclic five-membered ring-containing capsid protein assembly inhibitor, pharmaceutical composition thereof, and use thereof” (CHIA TAI TIANQING PHARMACEUTICAL GROUP CO., LTD., priority 2018, dated 2024).
# Legend:
# [1] = tested on: rAAV8-1.3HBV virus (adr subtype); assay: Antiviral effect evaluation in AAV mouse model; type: in vivo, C57BL/6 mice; conditions: 30 mpk intragastric once daily, administration for 24 days
# Description: 6-8 week old male C57BL/6 mice were injected with rAAV8-1.3HBV virus (adr subtype) at tail vein at a dose of 1×10^11 vg. Blood was collected from the orbits of the mice on week 2 and 4 after the virus injection. The serum was separated, and the expression levels of HBeAg and HBsAg in the serum and the HBV DNA copy number were detected to evaluate whether the model was successfully established. According to the results of quantitative detection of serological HBeAg, HBsAg and HBV DNA, the mice having HBV DNA expression level greater than 1×10^4 IU/mL, HBeAg expression level greater than 1×10^3 NCU/mL and HBsAg expression level greater than 1×10^3 ng/mL were selected. The mice were grouped into a blank control group, a vehicle control group, and a test substance group. […] During the experiment, blood was collected from the orbits every other week, serum was separated, and the DNA content was detected by fluorescent quantitative PCR method.
# [2] = Plasma protein binding assay (equilibrium dialysis), dog plasma; type: in vitro ADME
# Description: Formulation of plasma sample: 495 μL of blank plasmas of the corresponding species (mouse, rat, dog, monkey, and human) were drawn respectively, and thereto was added 5 μL of the corresponding test compound solution or positive control to give plasma sample solutions having a plasma drug concentration of the compound of 1 μM, and 10 μM, respectively (formulated with acetonitrile).
# The pre-treated dialysis membrane was placed in a high-throughput equilibrium dialysis device, and 100 μL of the plasma sample solution and PBS buffer solution were drawn and added respectively to both sides of the dialysis membrane (sample side and buffer side) (n=3). After the equilibration device was sealed with a film, it was incubated at 37° C. overnight (100 rpm). After dialysis equilibrium was reached, 50 μL samples were drawn from the sample side and the buffer side, respectively, and the reaction was terminated by adding ice acetonitrile containing an internal standard.
# Sample pre-treatment: To 50 μL of the plasma-side sample was added 450 μL of ice acetonitrile containing an internal standard, and then precipitated. After vortexing for 5 minutes, the sample was centrifugated (12000 rpm, 4° C.) for 10 minutes. 75 μL of the supernatant was pipetted, and 75 μL of ultrapure water was added thereto for dilution and mixed uniformly. 1 μL of the resulting solution was injected for analysis. To 50 μL of the PBS-side sample was added 250 μL of ice acetonitrile with an internal standard, and precipitated. After vortexing for 5 min, the sample was centrifugated (12000 rpm, 4° C.) for 10 min. 75 μL of the supernatant was pipetted, and 75 μL of ultrapure water was added thereto for dilution and mixed uniformly. 2 μL of the resulting solution was injected for analysis.
# [3] = Solubility in PBS buffer at pH 7.4; type: physicochemical; conditions: aqueous buffer, PBS buffer pH 7.4, 25° C.
# Description: […] After standing at 25° C. for 16 hours, the system was centrifugated (12000 rpm, room temperature) for 10 min. 20 μL of the supernatant was taken out, and the reaction was terminated with 400 μL of acetonitrile containing an internal standard (diazepam 20 ng/mL). 30 μL of the supernatant was pipetted, and 150 μL of 50% acetonitrile aqueous solution was added thereto for dilution and mixed uniformly. 0.5 μL of the resulting solution was injected for analysis.
# [4] = Stability of mouse liver microsomes in vitro; type: in vitro ADME
# Description: 300 μL of a final incubation system contains 30 μL of liver microsomes (protein concentration: 0.15 mg/mL), 30 μL NADPH+MgCl2, 3 μL substrate (formulated with acetonitrile), and 237 μL PBS buffer. Duplicate incubation systems of 0.3 mL each were formulated for each species. A total volume of 270 μL of a uniformly mixed solution of the substrate and the enzyme was formulated in each tube, the solution and NADPH were pre-incubated at 37° C. for 5 minutes, respectively. Then 30 μL of the mixed solution of NADPH+MgCl2 was added for reaction. 50 μL of the reaction solution was taken out at 0, 10, 30, and 60 mins, and the reaction was terminated with 300 μL of ice acetonitrile containing an internal standard.
# Sample pre-treatment: To 50 μL of the incubated sample was added 300 μL of ice acetonitrile containing diazepam as an internal standard and then precipitated. After vortexing for 5 minutes, the sample was centrifugated (12000 rpm, 4° C.) for 10 minutes. 75 μL of the supernatant was pipetted into a 96-well plate, and then diluted with 75 μL ultrapure water and mixed uniformly. 0.5 μL of the resulting solution was injected and analyzed by LC-MS/MS.
# [5] = In vivo pharmacokinetics (PK) study in mice; conditions: ICR mice, po 30 mg/kg
# Description: ICR mice, weighing 18-20 g, were randomly divided into groups of three mice each after 3 to 5 days' acclimatization, and a series of the compounds were administered intragastrically to each group at a dose of 30 mg/kg. The test animals (ICR mice) were fasted for 12 hours before the administration and fed 4 hours after the administration. They were free to access water before and after the experiment. After the intragastric administration, about 0.1 mL of blood was collected from the orbits. Within 30 minutes after anticoagulation with EDTA-K2, the plasma was separated by centrifugation at 4° C. and 4000 rpm for 10 minutes. Immediately after collecting all plasma, it was stored at −20° C. for testing. 20 μL of the plasma sample to be tested and standard curve sample were pipetted, and then thereto was added 200 μL of an acetonitrile solution containing an internal standard (diazepam 20 mg/mL). The resulting mixture was oscillated and mixed uniformly for 5 min, and then centrifugated at 12000 rpm for 10 min. 75 μL supernatant was pipetted, and 75 μL ultrapure water was added thereto for dilution, and mixed evenly. 1 μL of the resulting solution was pipetted for LC/MS/MS determination.
SMILES,"Reduction levels (log10) of HBV DNA in serum, Day 7 [1] [log10]","Reduction levels (log10) of HBV DNA in serum, Day 14 [1] [log10]","Reduction levels (log10) of HBV DNA in serum, Day 21 [1] [log10]","Reduction levels (log10) of HBV DNA in serum, Day 28 [1] [log10]",Binding rate ([2]; 1 μM) [%],Binding rate ([2]; 10 μM) [%],solubility at 16 h [3] [µM],Remaining (%) at 60 min [4] [%],"Liver AUC(0-8 h) ([5]; 0.25 h, 3 h, 8 h) [ng/g]","Plasma AUC(0-8 h) ([5]; blood at 0.25 h, 3 h, 8 h) [ng/mL]","Kp ([5]; mouse, liver/blood, AUC(0-8 h), read-out: Liver to blood ratio)"
Cc1c(C(=O)Nc2ccc(F)c(C#N)c2)c(C)n(C)c1C(=O)C(=O)N[C@@H](C)C(F)(F)F [Example 12],2.42,3.46,5.08,2.48,85.9,85.9,8.1,67.1,–,–,–
"Cc1c(C(=O)Nc2ccc(F)c(C#N)c2)c(C)n(C)c1C(=O)C(=O)NC1(C(F)(F)F)COC1 [Example 25, N-(3-cyano-4-fluorophenyl)-1,2,4-trimethyl-5-(2-oxo-2-((3-(trifluoromethyl)oxetan-3-yl)amino)acetyl)-1H-pyrrole-3-carboxamide]",1.16,1.76,2.89,1.28,87.0,86.8,–,50.8,315435,37732,8.36
